From the supplement of paper PMC10307832 come the findings set out here.

Test in all cases: relative viability (nuclei count vs DMSO), 5 days (fraction); higher = more cells survive
Compound in assay [1]: O=C(O)c1ccc2c(c1)nc(Nc1cccc(Cl)c1)c1ccncc12 [Silmitasertib] + CC(=O)c1c(C)c2cnc(Nc3ccc(N4CCNCC4)cn3)nc2n(C2CCCC2)c1=O [Palbociclib] (partner 0.5 µM)
An outline of the steps: (§1)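 Relative viability was taken as the ratio of nuclei in treated wells to nuclei in vehicle wells. Lung cancer cell lines in 1536-well plates received compounds by pin tool one day after seeding, either one drug alone or a fixed anchor-drug dose plus five library-drug doses (not always all listed) in √10 steps. Nuclei were counted on 4× images after 5 days of treatment, and values are medians of duplicate plates.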

Compound in assay [2]: O=C(O)c1ccc2c(c1)nc(Nc1cccc(Cl)c1)c1ccncc12 [Silmitasertib] + CCNC(=O)c1noc(-c2cc(C(C)C)c(O)cc2O)c1-c1ccc(CN2CCOCC2)cc1 [Luminespib] (partner 0.01 µM)
In outline:
as §1

Compound in assay [3]: O=C(O)c1ccc2c(c1)nc(Nc1cccc(Cl)c1)c1ccncc12 [Silmitasertib] + C[C@]1(O)C[C@@H](c2nc(-c3ccc4ccc(-c5ccccc5)nc4c3)c3c(N)nccn32)C1 [Linsitinib] (partner 1 µM)
An outline of the steps:
as §1

Compound in the assay “Silmitasertib + AZD7762”: O=C(O)c1ccc2c(c1)nc(Nc1cccc(Cl)c1)c1ccncc12 [Silmitasertib] + NC(=O)Nc1cc(-c2cccc(F)c2)sc1C(=O)N[C@H]1CCCNC1 [AZD7762] (partner 0.2 µM)
In outline:
as §1

Compound in the assay “Silmitasertib + Olaparib”: O=C(O)c1ccc2c(c1)nc(Nc1cccc(Cl)c1)c1ccncc12 [Silmitasertib] + O=C(c1cc(Cc2n[nH]c(=O)c3ccccc23)ccc1F)N1CCN(C(=O)C2CC2)CC1 [Olaparib] (partner 8 µM)
An outline of the steps: as §1

In the case of PC-14, the relative viability in assay [1] (first compound 0.04 µM) was 0.581; in assay [1] (first compound 1.265 µM), 0.553; in assay [1] (first compound 4 µM), 0.541; in assay [2] (first compound 0.04 µM) it was 0.188; in assay [2] (first compound 1.265 µM) it was 0.14; in assay [2] (first compound 4 µM) it was 0.179. Besides, the relative viability in assay [3] (first compound 0.04 µM) was determined as 0.966; in assay [3] (first compound 0.4 µM), 0.999; in assay [3] (first compound 1.265 µM), 1.01; in assay [3] (first compound 4 µM), 0.993; with Silmitasertib + AZD7762 (first compound 0.04 µM) it was 0.336; in the assay with Silmitasertib + AZD7762 (first compound 1.265 µM), 0.399. For the same cell line, the relative viability was determined as 0.321 in the assay with Silmitasertib + AZD7762 (first compound 4 µM); 0.346 with Silmitasertib + Olaparib (first compound 0.04 µM); 0.163 with Silmitasertib + Olaparib (first compound 0.4 µM); 0.34 in the assay with Silmitasertib + Olaparib (first compound 1.265 µM); 0.272 with Silmitasertib + Olaparib (first compound 4 µM).
As to RERF-LC-KJ, the relative viability in assay [1] (first compound 0.04 µM) worked out at 1.16; in assay [1] (first compound 0.4 µM) it was 0.993; in assay [1] (first compound 1.265 µM), 0.758; in assay [1] (first compound 4 µM), 0.798; in assay [2] (first compound 0.04 µM), 1.24; in assay [2] (first compound 0.4 µM), 1.19. For the same cell line, the relative viability turned out to be 1.08 in assay [2] (first compound 1.265 µM); 0.633 in assay [2] (first compound 4 µM); 0.858 in assay [3] (first compound 0.04 µM); 0.876 in assay [3] (first compound 0.4 µM); 0.689 in assay [3] (first compound 1.265 µM); 0.672 in assay [3] (first compound 4 µM). Further, the relative viability with Silmitasertib + AZD7762 (first compound 0.04 µM) is 1.07; in the assay with Silmitasertib + AZD7762 (first compound 0.4 µM), 0.785; with Silmitasertib + AZD7762 (first compound 1.265 µM), 0.763; with Silmitasertib + AZD7762 (first compound 4 µM), 0.344; with Silmitasertib + Olaparib (first compound 0.04 µM) it was 0.909; with Silmitasertib + Olaparib (first compound 0.4 µM), 0.829. Besides, the relative viability in the assay with Silmitasertib + Olaparib (first compound 1.265 µM) turned out to be 0.785; with Silmitasertib + Olaparib (first compound 4 µM) it was 0.74.
